Tests used:
PP1/PP2A-chimera (CRHM2) = assay: Inhibition of recombinant PP1/PP2A chimera; format: biochemical, human PP1 / bovine PP2A; conditions: enzyme printed as rPP2Ac-1
Method: FIG. 6: Sequence of a PP1/PP2A chimera. To characterize the fostriecin binding site, the N-terminal region of PP1 was ligated to the C-terminal region of PP2A (in bold) to produce a PP1/PP2A-chimera (CRHM2). Previous studies indicate that the okadaic acid binding domain is contained in the C-terminal region of PP2A that was incorporated into CRHM2.
FIG. 7: Effect of fostriecin and okadaic acid on the activity of recombinant CRHM2. CRHM2 activity was assayed in the presence of the indicated amount of fostriecin (FIG. 7A) or okadaic acid (FIG. 7B). […] Assays were conducted as described in FIG. 5. Each point represents the mean ± SE (n>6).
(§1) PP1, an enzyme highly homologous to PP2A, could be expressed in a stable manner and in relatively large amounts. Thus, human PP1 was cloned and subcloned into a bacterial expression vector as was done for PP2A. […] To create a hybrid enzyme (a PP1/PP2A chimera) that could be expressed stably like rPP1 but would bind okadaic acid with high affinity like PP2A, a number of mutant forms of PP1 and PP2A were constructed. Then, through mutational analysis, the okadaic acid binding domain of PP2A was identified. The okadaic acid binding domain from PP2A was cloned behind the amino terminal domain of PP1. The hybrid, referred to as CRHM-2, was subcloned into an expression vector. Restriction analysis of CRHM-2 confirmed the identity of the construct.
In these studies, the bacterial expressed PP1/PP2A hybrid enzyme was produced by growing appropriate strains of transformed E. coli at 18° C. for 48 hours in LB-media containing 50 μg/ml ampicillin, 1 mM MnCl2, and 50 μM IPTG. The bacteria were lysed with a French Press, and after centrifugation at 15,000×g for 45 min, the phosphatase was partially purified via ion-exchange [High Q (BioRad) and MonoQ (Pharmacia)] and affinity [Heparin-Sepharose (Pharmacia)] chromatography. The sensitivity of the chimera to fostriecin was determined employing the same protein phosphatase assay employed with endogenous PP1 or PP2A, with the addition of MnCl2 (1 mM) to the assay buffer.

rPP1 = assay: Inhibition of recombinant PP1; format: biochemical; conditions: bacterially expressed human PP1
From the text: as §1

SMILES: C=C1[C@@H](O)[C@@H]2O[C@]3(CC[C@H](/C=C/[C@@H](C)[C@@H]4CC(C)=C[C@@]5(O[C@H](C[C@@](C)(O)C(=O)O)CC[C@H]5O)O4)O3)CC[C@H]2O[C@@H]1[C@@H](O)C[C@H](C)[C@H]1O[C@@]2(CCCCO2)CC[C@H]1C [okadaic acid, reference compound]
- binding affinity to the recombinant hybrid enzyme (PP1/PP2A-chimera (CRHM2)): comparable affinity to PP2A
- sensitivity of rPP1 to inhibition, relative to PP2A (rPP1): less sensitive to inhibition by okadaic acid than PP2A
